In patent US8242118B2, “Arylsulfonamide derivatives for use as CCR3 antagonists in the treatment of inflammatory and immunological disorders” (Axikin Pharmaceuticals Inc., priority 2001, dated 2012):
Counter-ions that a name gives are not always drawn.

Each compound was assayed against T1, Human CCR3 (Homo sapiens, UniProt P51677) (assay: Calcium mobilization assay, eotaxin-stimulated). Conditions: human CCR3-transformed K562 cells, 10 nM eotaxin; compounds of about 40 to 90% purity; read-out: Activity grade Ca2+ (IC50 class).
T1 construct: The cloned CCR3 cDNA was constructed with pcDNA3 vector and transfected into a IC562 cell line; expressed in transfected cells
T1 sequence (P51677 1-355): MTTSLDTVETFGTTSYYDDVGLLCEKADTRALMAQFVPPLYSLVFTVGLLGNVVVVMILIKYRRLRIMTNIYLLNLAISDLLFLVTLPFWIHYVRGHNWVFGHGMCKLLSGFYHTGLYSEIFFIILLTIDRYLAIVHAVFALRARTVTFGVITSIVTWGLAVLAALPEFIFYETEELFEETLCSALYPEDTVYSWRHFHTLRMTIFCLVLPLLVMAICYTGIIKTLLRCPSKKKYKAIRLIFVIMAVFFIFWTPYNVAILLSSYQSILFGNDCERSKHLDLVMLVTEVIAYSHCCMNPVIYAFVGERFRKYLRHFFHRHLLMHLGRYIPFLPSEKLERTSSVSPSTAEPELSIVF
Type: cell-based
Method in brief: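 K562 cells transfected with human CCR3, pretreated 20–24 h with 5 mM sodium butyrate, loaded with Fluo-3AM. Compound added 10 min before stimulation with 10 nM (final) eotaxin; cytoplasmic calcium read over 60 s by FDSS, IC50 from inhibition curve.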

SMILES	IC50 [nM]
CC(=O)c1cccc(Oc2ccc([N+](=O)[O-])cc2S(=O)(=O)N2CCNCC2)c1.Cl [Example 1-31]	> 10000
N#Cc1ccc(Nc2cc(Cl)cc(Cl)c2)c(S(=O)(=O)N2CCNCC2)c1 [Example 20-1, 4-[(3,5-dichlorophenyl)amino]-3-(1-piperazinylsulfonyl)benzonitrile hydrochloride]	< 1000
Cc1ccccc1Oc1ccc([N+](=O)[O-])cc1S(=O)(=O)N1CCNCC1.Cl [Example 1-12]	1000 to 10000
Cl.O=[N+]([O-])c1ccc(Oc2cc(Cl)cc(Cl)c2)c(S(=O)(=O)N2CCCNCC2)c1 [Example 1-91]	< 1000
COc1ccccc1Oc1ccc([N+](=O)[O-])cc1S(=O)(=O)N1CCNCC1.Cl [Example 1-27]	< 1000
COc1cc(OC)cc(Oc2ccc([N+](=O)[O-])cc2S(=O)(=O)N2CCNCC2)c1.Cl [Example 1-5]	> 10000
Cl.O=[N+]([O-])c1ccc(Oc2cc(Cl)cc(Cl)c2)c(S(=O)(=O)N2CCNCC2)c1 [Example 1-33]	< 1000
Cl.O=[N+]([O-])c1ccc(Oc2ccccc2Cl)c(S(=O)(=O)N2CCNCC2)c1 [Example 1-28]	< 1000
Cc1cc(C)c(C)c(Oc2ccc([N+](=O)[O-])cc2S(=O)(=O)N2CCNCC2)c1.Cl [Example 1-65]	< 1000
Cc1cc(C)cc(Oc2ccc([N+](=O)[O-])cc2S(=O)(=O)N2CC(C)NCC2C)c1.Cl (centres unmarked) [Example 1-54]	< 1000

The remaining lines, values ahead:

IC50 [nM]	SMILES
< 1000	O=[N+]([O-])c1ccc(Oc2cc(Br)cc(Br)c2)c(S(=O)(=O)N2CCNCC2)c1 [Example 1-76]
< 1000	O=C(O)C1CNCCN1S(=O)(=O)c1cc([N+](=O)[O-])ccc1Oc1cc(Cl)cc(Cl)c1 (centres unmarked) [Example 1-87]
< 1000	Cl.O=[N+]([O-])c1cccc(Oc2ccc([N+](=O)[O-])cc2S(=O)(=O)N2CCNCC2)c1 [Example 1-38]
> 10000	Cc1cc(C)cc(Oc2ccc([N+](=O)[O-])cc2S(=O)(=O)N2CCN(C(=O)OC(C)(C)C)CC2)c1 [Example 1-1, tert-butyl 4-{[2-(3,5-dimethylphenoxy)-5-nitrophenyl]sulfonyl}-1-piperazinecarboxylate]
> 10000	Cc1cc(C)cc(Oc2cc(C(F)(F)F)ccc2S(=O)(=O)N2CCNCC2)c1.Cl [Example 1-46]
> 10000	CC(C)(C)c1ccc(Oc2ccc([N+](=O)[O-])cc2S(=O)(=O)N2CCNCC2)cc1 [Example 1-21]
< 1000	Cc1ccc(Oc2ccc([N+](=O)[O-])cc2S(=O)(=O)N2CCNCC2)cc1C.Cl [Example 1-63]
< 1000	Cc1ccc(Cl)c(Oc2ccc([N+](=O)[O-])cc2S(=O)(=O)N2CCNCC2)c1 [Example 1-80]
> 10000	COc1ccc(Oc2ccc([N+](=O)[O-])cc2S(=O)(=O)N2CCNCC2)cc1 [Example 1-19]
> 10000	CC(=O)c1ccccc1Oc1ccc([N+](=O)[O-])cc1S(=O)(=O)N1CCNCC1.Cl [Example 1-30]
